The record followed here is ChEMBL document CHEMBL1132826, “6-Hydroxy-1,3-dioxin-4-ones as non-peptidic HIV protease inhibitors” (Bioorg Med Chem Lett, 2000).

Experiment [1] is described as follows: Ratio of compound cytotoxic concentration (CC50) to that of antiviral activity (EC50). It is filed as functional.
Experiment [2] relates to MT4. Nature of the experiment: Cytotoxic concentration was measured in HIV-I IIIB infected MT-4 cells assay. It is filed as functional. The note with it: Homo sapiens.
The target in experiment [3] is Human immunodeficiency virus type 1 protease (Human immunodeficiency virus 1, UniProt Q72874). Nature of the experiment: Compound was evaluated for the inhibitory activity towards HIV protease.
The test system of experiment [4] is MT4. Nature of the experiment: Compound was evaluated for the antiviral activity in HIV-I IIIB infected MT-4 cells assay. Type of experiment: functional, cell-based. The note with it: Homo sapiens.

As for `CCCC1(CCc2ccccc2)OC(=O)C(C(CC)c2cccc(NS(=O)(=O)c3ccc(C#N)cc3)c2)=C(O)O1` (stereo not given), the SI in experiment [1] is under 1. Half-maximal cytotoxicity with MT4 [2] (CC50) was put at 66.5 µM. Besides, in experiment [3], half-maximal inhibition (IC50) required 0.015 µM. This compound registered an EC50 with MT4 [4] of over 66.5 µM.

In the case of `CCCC1(CCc2ccccc2)OC(=O)C(C(CC)c2cccc(NS(=O)(=O)c3ccc(C#N)cn3)c2)=C(O)O1` (stereo not given), in experiment [1], the SI was 6.77. In the experiment with MT4 [2], this compound gave a CC50 of 77 µM. Also, 0.003 µM corresponded to half-maximal inhibition in experiment [3] (IC50). A half-maximal effect in the experiment on MT4 [4] (EC50) was put at 11.4 µM.

For the compound `CCCC1(CCc2ccccc2)OC(=O)C(C(CC)c2cccc(NS(=O)(=O)c3ccc(N)cn3)c2)=C(O)O1` (stereo not given), the SI in experiment [1] is on record as under 1. The CC50 with MT4 [2] was determined as 70 µM. The compound also registered an IC50 in experiment [3] of 0.013 µM. Also, in the experiment on MT4 [4], the EC50 was over 70 µM.

`CCC[C@]1(CCc2ccccc2)OC(=O)C([C@H](CC)c2cccc(NS(=O)(=O)c3ccc(C(F)(F)F)cn3)c2)=C(O)O1` (racemic) gave an IC50 in experiment [3] of 0.05 µM.

For `CCCC1(CCc2ccccc2)OC(=O)C(C(CC)c2cccc(NS(=O)(=O)c3ccc([N+](=O)[O-])cn3)c2)=C(O)O1` (stereo not given), in experiment [1], the SI is under 1. The compound also displayed a CC50 in the experiment on MT4 [2] of 14.8 µM. Also, the IC50 in experiment [3] was 0.065 µM. Further, the EC50 in the experiment with MT4 [4] is over 14.8 µM.

For `CCCC1(CCc2ccccc2)OC(=O)C(C(CC)c2cccc(NS(=O)(=O)c3ccc(C(F)(F)F)cn3)c2)=C(O)O1` (stereo not given), the SI in experiment [1] is given as 65.69. The compound further showed a half-maximal cytotoxic concentration (CC50) in the experiment on MT4 [2] of 63 µM. In experiment [3], inhibition was half-maximal at 0.01 µM (IC50). In the experiment with MT4 [4], the EC50 worked out at 0.96 µM.

As to `CCCC1(CCc2ccccc2)OC(=O)C(C(CC)c2cccc(NS(=O)(=O)c3ccccn3)c2)=C(O)O1` (stereo not given), the SI in experiment [1] was over 2.05. In the experiment on MT4 [2], the CC50 is over 178 µM. The same compound gave an IC50 in experiment [3] of 0.013 µM. This compound yielded an EC50 in the experiment with MT4 [4] of 86.7 µM.
